Measured values from patent US20080234262A1 (Wyeth, priority 2007, published 2008).

Assays:
prostate line LNCap = test: In vitro cell culture growth assay (MTS), LNCap; assay type: cell-based, human; details: LNCap cells, three days after drug treatment;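 note: viable cell density read by absorbance at 490 nm, growth expressed as percent of vehicle-treated cells on the same plate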
PI3K = PI3K (Homo sapiens, UniProt P42336); test: Fluorescence polarization assay for PI3K; assay type: biochemical; details: PI3Kα; read-out: PI3Kα IC50;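 note: PI3K kinase reaction on PIP2 with ATP, 30-60 min, product sensed by GST-GRP with red probe in fluorescence polarization (mP), controls without enzyme and at zero time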
Chain of PI3K (P42336 whole entry): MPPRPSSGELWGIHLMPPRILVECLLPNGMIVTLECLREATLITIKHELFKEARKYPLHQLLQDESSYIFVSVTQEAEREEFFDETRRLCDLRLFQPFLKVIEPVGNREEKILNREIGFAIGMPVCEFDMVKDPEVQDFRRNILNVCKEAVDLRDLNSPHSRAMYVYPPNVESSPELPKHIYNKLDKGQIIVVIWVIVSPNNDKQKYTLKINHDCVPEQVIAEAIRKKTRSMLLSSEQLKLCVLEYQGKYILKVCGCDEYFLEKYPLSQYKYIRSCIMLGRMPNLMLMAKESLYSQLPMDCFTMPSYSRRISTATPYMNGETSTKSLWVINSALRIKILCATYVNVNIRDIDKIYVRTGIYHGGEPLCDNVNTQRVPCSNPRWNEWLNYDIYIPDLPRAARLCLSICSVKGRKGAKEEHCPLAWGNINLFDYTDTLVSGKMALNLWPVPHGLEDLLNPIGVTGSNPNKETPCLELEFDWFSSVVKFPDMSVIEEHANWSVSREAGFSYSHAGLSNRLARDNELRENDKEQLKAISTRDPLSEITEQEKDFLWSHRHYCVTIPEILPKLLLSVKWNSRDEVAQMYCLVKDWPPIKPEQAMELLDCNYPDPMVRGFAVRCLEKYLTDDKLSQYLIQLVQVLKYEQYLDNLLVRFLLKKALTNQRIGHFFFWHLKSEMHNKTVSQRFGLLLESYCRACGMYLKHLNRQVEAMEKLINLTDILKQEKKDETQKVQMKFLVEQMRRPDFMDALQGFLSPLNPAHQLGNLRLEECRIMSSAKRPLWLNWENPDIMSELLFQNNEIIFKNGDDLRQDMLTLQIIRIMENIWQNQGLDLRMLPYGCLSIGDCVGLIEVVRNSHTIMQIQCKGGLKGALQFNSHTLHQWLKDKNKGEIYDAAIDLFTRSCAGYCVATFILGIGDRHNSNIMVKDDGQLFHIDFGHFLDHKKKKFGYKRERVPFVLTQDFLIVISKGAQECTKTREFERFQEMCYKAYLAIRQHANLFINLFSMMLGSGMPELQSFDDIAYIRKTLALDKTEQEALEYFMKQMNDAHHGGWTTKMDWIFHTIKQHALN
Chain of PI3K (P27986 whole entry partner): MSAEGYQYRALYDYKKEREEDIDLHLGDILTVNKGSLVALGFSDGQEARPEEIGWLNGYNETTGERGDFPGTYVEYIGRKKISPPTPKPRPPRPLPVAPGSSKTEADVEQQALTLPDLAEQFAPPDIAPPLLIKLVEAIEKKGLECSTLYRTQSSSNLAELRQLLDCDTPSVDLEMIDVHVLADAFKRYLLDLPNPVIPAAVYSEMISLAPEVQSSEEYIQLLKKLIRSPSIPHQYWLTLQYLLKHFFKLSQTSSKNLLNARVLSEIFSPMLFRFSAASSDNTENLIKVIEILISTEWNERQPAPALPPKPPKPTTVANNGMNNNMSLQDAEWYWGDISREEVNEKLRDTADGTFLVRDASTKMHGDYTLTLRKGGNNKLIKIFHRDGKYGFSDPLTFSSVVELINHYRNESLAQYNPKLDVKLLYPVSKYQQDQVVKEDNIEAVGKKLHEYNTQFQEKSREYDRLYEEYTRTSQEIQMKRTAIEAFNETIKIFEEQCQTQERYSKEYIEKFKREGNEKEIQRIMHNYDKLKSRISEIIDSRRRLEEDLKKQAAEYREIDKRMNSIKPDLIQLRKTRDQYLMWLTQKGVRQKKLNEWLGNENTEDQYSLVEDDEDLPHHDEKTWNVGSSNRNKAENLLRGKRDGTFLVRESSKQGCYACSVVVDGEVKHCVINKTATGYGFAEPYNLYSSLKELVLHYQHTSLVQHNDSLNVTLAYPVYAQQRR

breast line MDA468 = test: In vitro cell culture growth assay (MTS), MDA468; assay type: cell-based, human; details: MDA468 cells, three days after drug treatment
In short: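 Steps: plate cells; add inhibitors the next day; incubate 3 days; add MTS dye, which viable cells convert metabolically; measure absorbance at 490 nm; calculate percent of control growth relative to vehicle-treated cells in the same plate.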

| Compound | IC50 (prostate line LNCap; Homo sapiens, LNCaP, 72 h) [µM] | IC50 (PI3K) [µM] | IC50 (prostate line LNCap) [µM] | IC50 (breast line MDA468; Homo sapiens, 72 h) [µM] | IC50 (breast line MDA468) [µM] |
| --- | --- | --- | --- | --- | --- |
| CCNC(=O)Nc1ccc(-c2nc(N3CCOC[C@@H]3C)c3cnn(C4CCN(C(=O)OCC)CC4)c3n2)cc1 [Compound 894, ethyl 4-(6-{4-[(ethylcarbamoyl)amino]phenyl}-4-[(3S)-3-methylmorpholin-4-yl]-1H-pyrazolo[3,4-d]pyrimidin-1-yl)piperidine-1-carboxylate] | 0.1 | 0.553 |  | 0.96 |  |
| Clc1ncccc1CN1CCC(n2ncc3c(N4CCOCC4)nc(-c4ccc5[nH]ccc5c4)nc32)CC1 [Compound 175] | 1.1 | 0.462 |  | 2 |  |
| COC(=O)Nc1ccc(-c2nc(N3CCOCC3)c3cnn(C4CCN(C(=O)OC(C)C)CC4)c3n2)cc1 [Compound 806, isopropyl 4-(6-{4-[(methoxycarbonyl)amino]phenyl}-4-morpholin-4-yl-1H-pyrazolo[3,4-d]pyrimidin-1-yl)piperidine-1-carboxylate] | 0.7 | 4.55 |  | 0.9 |  |
| COC(=O)Nc1ccc(-c2nc(N3CCOCC3)c3cnn(C4CCN(C(C)=O)CC4)c3n2)cc1 [Compound 809, methyl {4-[1-(1-acetylpiperidin-4-yl)-4-morpholin-4-yl-1H-pyrazolo[3,4-d]pyrimidin-6-yl]phenyl}carbamate] | 2.3 | 2.1 |  | 4.5 |  |
| COc1cc(-c2nc(N3CCOCC3)c3cnn(C4CCN(Cc5ccccc5)CC4)c3n2)ccc1NC(C)=O [Compound 182] | 5 | 3.93 |  | 4.1 |  |
| O=C(Nc1ccc(-c2nc(N3CCOCC3)c3cn[nH]c3n2)cc1)c1cccnc1 [Compound 278, N-[4-(4-morpholin-4-yl-1H-pyrazolo[3,4-d]pyrimidin-6-yl)phenyl]nicotinamide] | 7.2 | 1.17 |  | 60 |  |
| O=C(NCCF)Nc1ccc(-c2nc(N3CCOCC3)c3cnn(C4CCN(Cc5cccnc5)CC4)c3n2)cc1F [Compound 619, 1-(2-fluoroethyl)-3-(2-fluoro-4-{4-morpholin-4-yl-1-[1-(pyridin-3-ylmethyl)piperidin-4-yl]-1H-pyrazolo[3,4-d]pyrimidin-6-yl}phenyl)urea] | 0.14 | 0.619 |  | 1.3 |  |
| Oc1cccc(-c2nc(N3CCCOCC3)c3cnn(-c4ccccc4)c3n2)c1 [Compound 962, 3-[4-(1,4-oxazepan-4-yl)-1-phenyl-1H-pyrazolo[3,4-d]pyrimidin-6-yl]phenol] | 6 | 1.09 |  | 12 |  |
| CCNC(=O)Nc1ccc(-c2nc(N3CCOCC3)c3cnn(C4CCN(Cc5ccccc5)CC4)c3n2)cc1F [Example 349, 1-{4-[1-(1-benzylpiperidin-4-yl)-4-morpholin-4-yl-1H-pyrazolo[3,4-d]pyrimidin-6-yl]-2-fluorophenyl}-3-ethylurea] | 0.23 | 0.485 |  | 2.5 |  |
| CC(c1ccccc1)N1CCC(n2ncc3c(N4CCOCC4)nc(-c4ccc5[nH]ccc5c4)nc32)CC1 (stereo not drawn) [Compound 240, 6-(1H-indol-5-yl)-4-morpholin-4-yl-1-[1-(1-phenylethyl)piperidin-4-yl]-1H-pyrazolo[3,4-d]pyrimidine] | 3.8 | 2.67 |  | 3.5 |  |
| COC(=O)N1CCC(n2ncc3c(N4CCOCC4)nc(-c4ccc5[nH]ccc5c4)nc32)CC1 [Compound 494, methyl 4-[6-(1H-indol-5-yl)-4-morpholin-4-yl-1H-pyrazolo[3,4-d]pyrimidin-1-yl]piperidine-1-carboxylate] | 0.75 | 3.3 |  | 2.05 |  |
| CCNC(=O)Nc1ccc(-c2nc(N3CCOCC3)c3cnn(C4CCN(CCCCO)CC4)c3n2)cc1 [Compound 745, 1-ethyl-3-(4-{1-[1-(4-hydroxybutyl)piperidin-4-yl]-4-morpholin-4-yl-1H-pyrazolo[3,4-d]pyrimidin-6-yl}phenyl)urea] | 1.3 | 0.55 |  | 2.9 |  |
| CN(C)C1CCC(n2ncc3c(N4CCOCC4)nc(-c4ccc5[nH]ccc5c4)nc32)CC1 (stereo not drawn) [Compound 150] | 0.3 | 1.95 |  | 2.1 |  |
| C=CC(=O)Nc1ccc(-c2nc(N3CCOCC3)c3cn[nH]c3n2)cc1 [Compound 280, N-[4-(4-morpholin-4-yl-1H-pyrazolo[3,4-d]pyrimidin-6-yl)phenyl]acrylamide] | 3.4 | 0.601 |  | 7 |  |
| OCCCN1CCC(n2ncc3c(N4CCOCC4)nc(-c4ccc5[nH]ccc5c4)nc32)CC1 [Compound 247, 3-{4-[6-(1H-indol-5-yl)-4-morpholin-4-yl-1H-pyrazolo[3,4-d]pyrimidin-1-yl]piperidin-1-yl}propan-1-ol] | 2.5 | 7.29 |  | 3 |  |
| CCOC(=O)Nc1ccc(-c2nc(N3CCOCC3)c3cnn(C4CCN(C(=O)OC)CC4)c3n2)cc1 [Compound 900, methyl 4-(6-{4-[(ethoxycarbonyl)amino]phenyl}-4-morpholin-4-yl-1H-pyrazolo[3,4-d]pyrimidin-1-yl)piperidine-1-carboxylate] | 0.76 | 6.72 |  | > 60 |  |
| NCc1cccc(-c2nc(N3CCOCC3)c3cnn(-c4ccccc4)c3n2)c1 [Compound 144] | 2.4 | 0.627 |  | 3.8 |  |

Now those with a lower IC50 (PI3K), led by results:

| IC50 (prostate line LNCap; Homo sapiens, LNCaP, 72 h) [µM] | IC50 (PI3K) [µM] | IC50 (prostate line LNCap) [µM] | Compound | IC50 (breast line MDA468; Homo sapiens, 72 h) [µM] | IC50 (breast line MDA468) [µM] |
| --- | --- | --- | --- | --- | --- |
| 1.3 | 0.068 |  | O=C(C1CCCCC1)N1CCC(n2ncc3c(N4CCOCC4)nc(-c4cccc(O)c4)nc32)CC1 [Example 26] | 4 |  |
|  | 0.153 | 0.11 | CNC(=O)Nc1ccc(-c2nc(N3CCOCC3)c3cnn(C4CCN(Cc5cncc(F)c5)CC4)c3n2)cc1 [Compound 637, 1-[4-(1-{1-[(5-fluoropyridin-3-yl)methyl]piperidin-4-yl}-4-morpholin-4-yl-1H-pyrazolo[3,4-d]pyrimidin-6-yl)phenyl]-3-methylurea] |  | 0.55 |
| 7 | 0.122 |  | O=CNc1ccc(-c2nc(N3CCOCC3)c3cnn(-c4ccccc4)c3n2)cc1 [Compound 118] | 20 |  |
| 2 | 0.124 |  | CNC(=O)Nc1ccc(-c2nc(N3CCOCC3)c3cnn(C4CCN(C(=O)CC(=O)OC)CC4)c3n2)cc1 [Compound 757, methyl 3-[4-(6-{4-[(methylcarbamoyl)amino]phenyl}-4-morpholin-4-yl-1H-pyrazolo[3,4-d]pyrimidin-1-yl)piperidin-1-yl]-3-oxopropanoate] | 1.1 |  |
| 0.11 | 0.25 |  | COC(=O)N1CCC(n2ncc3c(N4CCOCC4)nc(-c4ccc(NC(=O)Nc5ccc(F)cc5F)cc4)nc32)CC1 [Compound 861, methyl 4-[6-(4-{[(2,4-difluorophenyl)carbamoyl]amino}phenyl)-4-morpholin-4-yl-1H-pyrazolo[3,4-d]pyrimidin-1-yl]piperidine-1-carboxylate] | 0.58 |  |
| 0.1 | 0.38 |  | O=C(NCCO)Nc1ccc(-c2nc(N3CCOCC3)c3cnn(C4CCN(CC(F)(F)F)CC4)c3n2)cc1 [Compound 784, 1-(2-hydroxyethyl)-3-(4-{4-morpholin-4-yl-1-[1-(2,2,2-trifluoroethyl)piperidin-4-yl]-1H-pyrazolo[3,4-d]pyrimidin-6-yl}phenyl)urea] | 1.05 |  |
| 0.028 | 0.012 |  | O=C(Nc1ccncc1)Nc1ccc(-c2nc(N3CCOCC3)c3cnn(C4CCN(Cc5cccnc5)CC4)c3n2)cc1 [Compound 587, 1-(4-{4-morpholin-4-yl-1-[1-(pyridin-3-ylmethyl)piperidin-4-yl]-1H-pyrazolo[3,4-d]pyrimidin-6-yl}phenyl)-3-pyridin-4-ylurea] | 0.12 |  |
| 0.5 | 0.162 |  | O=C(NCCO)Nc1ccc(-c2nc(N3CCOCC3)c3cnn(C4CCN(Cc5cccnc5)CC4)c3n2)cc1 [Compound 561, 1-(2-hydroxyethyl)-3-(4-{4-morpholin-4-yl-1-[1-(pyridin-3-ylmethyl)piperidin-4-yl]-1H-pyrazolo[3,4-d]pyrimidin-6-yl}phenyl)urea] | 0.6 |  |
| < 0.027 | 0.063 |  | CNC(=O)Nc1ccc(-c2nc(N3CCOCC3)c3cnn(C4CCN(C(=O)c5ccccc5)CC4)c3n2)cc1 [Compound 580, 1-{4-[1-(1-benzoylpiperidin-4-yl)-4-morpholin-4-yl-1H-pyrazolo[3,4-d]pyrimidin-6-yl]phenyl}-3-methylurea] | 0.027 |  |
| 0.57 | 0.109 |  | Nc1ccc(-c2nc(N3CCOCC3)c3cnn(C4CCN(C(=O)c5cccnc5)CC4)c3n2)cn1 [Example 214, 5-{4-morpholin-4-yl-1-[1-(pyridin-3-ylcarbonyl)piperidin-4-yl]-1H-pyrazolo[3,4-d]pyrimidin-6-yl}pyridin-2-amine] | 1.5 |  |
|  | 0.084 | 0.15 | CNC(=O)Nc1ccc(-c2nc(N3CCOCC3)c3cnn(C4CCN(C(=O)c5ccc(Cl)nc5)CC4)c3n2)cc1 [Compound 668, 1-[4-(1-{1-[(6-chloropyridin-3-yl)carbonyl]piperidin-4-yl}-4-morpholin-4-yl-1H-pyrazolo[3,4-d]pyrimidin-6-yl)phenyl]-3-methylurea] |  | 0.41 |
| 0.06 | 0.434 |  | CCNC(=O)Nc1ccc(-c2nc(N3CCOCC3)c3cnn(C4CCN(C(=O)c5cccnc5)CC4)c3n2)cc1 [Compound 552, 1-ethyl-3-(4-{4-morpholin-4-yl-1-[1-(pyridin-3-ylcarbonyl)piperidin-4-yl]-1H-pyrazolo[3,4-d]pyrimidin-6-yl}phenyl)urea] | 0.18 |  |
| 2.2 | 0.016 |  | O=C(Nc1ccncc1)Nc1ccc(-c2nc(N3CCOCC3)c3cnn(C4CCNCC4)c3n2)cc1 [Compound 780, 1-[4-(4-morpholin-4-yl-1-piperidin-4-yl-1H-pyrazolo[3,4-d]pyrimidin-6-yl)phenyl]-3-pyridin-4-ylurea] | 1.5 |  |
